Consider 6 molecules from PMC6957519, “NLRP6 self-assembles into a linear molecular platform following LPS binding and ATP stimulation” (Scientific Reports, 2020).

“And” between values parts separate entries of the source, which are not always exact repeats. Equal entries are not always repeated.

Data set [1] addresses T1, NLRP6 (Homo sapiens, UniProt P59044).
T1 construct: full-length 1-892; N-terminal His-MBP tag removed by HRV3C; E. coli BL21(DE3); monomer, dimerises with LPS
T1 sequence (P59044 1-892): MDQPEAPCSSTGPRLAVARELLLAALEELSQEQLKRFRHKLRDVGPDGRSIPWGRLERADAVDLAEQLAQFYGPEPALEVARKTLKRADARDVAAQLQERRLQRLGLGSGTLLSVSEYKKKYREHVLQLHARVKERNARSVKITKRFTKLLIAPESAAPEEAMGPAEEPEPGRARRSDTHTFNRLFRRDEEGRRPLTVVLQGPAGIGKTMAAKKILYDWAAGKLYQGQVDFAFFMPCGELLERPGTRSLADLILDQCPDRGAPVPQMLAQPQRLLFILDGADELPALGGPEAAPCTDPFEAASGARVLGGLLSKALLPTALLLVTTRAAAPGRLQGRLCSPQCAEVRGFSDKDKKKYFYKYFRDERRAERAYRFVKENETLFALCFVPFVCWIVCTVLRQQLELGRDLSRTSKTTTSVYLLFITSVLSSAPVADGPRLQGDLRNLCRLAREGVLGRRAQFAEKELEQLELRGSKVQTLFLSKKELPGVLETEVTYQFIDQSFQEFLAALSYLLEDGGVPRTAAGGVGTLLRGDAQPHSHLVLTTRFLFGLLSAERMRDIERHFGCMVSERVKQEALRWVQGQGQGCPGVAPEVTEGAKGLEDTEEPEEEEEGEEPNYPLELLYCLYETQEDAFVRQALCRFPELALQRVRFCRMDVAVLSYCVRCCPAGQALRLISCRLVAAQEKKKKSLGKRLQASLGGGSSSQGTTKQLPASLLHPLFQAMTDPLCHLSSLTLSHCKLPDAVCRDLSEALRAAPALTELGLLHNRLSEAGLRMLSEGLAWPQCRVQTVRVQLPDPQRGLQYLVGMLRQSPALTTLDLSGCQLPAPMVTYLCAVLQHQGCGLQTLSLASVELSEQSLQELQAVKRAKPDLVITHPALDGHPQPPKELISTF
Description: nucleotide-induced oligomerization. Format: binding. The following applies: with LPS (LPS-bound dimer); putative NOD domain site.

Data set [2] has as its target T1, NLRP6. Put plainly: gel filtration and EM, nucleotide-induced oligomerization. Format: binding. Conditions: with LPS (LPS-bound dimer); no shift of the monomer with ATP alone; putative NOD domain site.
Data set [3] concerns the molecule itself. Description: SEC; NLRP6 monomer incubated with LPS (Ra, 10 uM or 20 uM; NLRP6 to component 1:20), Superdex 200 10/300; similar peak shifts with LPS Rc, Rd, Re, Lipid A, FITC-LPS and Pam3CSK4. Background: In gel filtration, larger molecules generally elute earlier.
Data set [4] deals with the molecule itself. Put plainly: negative-stain electron microscopy; NLRP6 with LPS and ATP increased to 2 mM.
Data set [5] concerns the molecule itself. Description: negative-stain electron microscopy with 3D reconstruction; NLRP6 with LPS and 1 mM ATP (peak 3 of the gel filtration); particles classed by the number of shrinked links; tetramer map from 8783 particles.

`Nc1nc2c(ncn2[C@@H]2O[C@H](COP(=O)(O)OP(=O)(O)OP(=O)(O)O)[C@@H](O)[C@H]2O)c(=O)[nH]1` [GTP]: at NLRP6 [1], the nucleotide-induced oligomerization result was “demonstrated by ATP, GTP, CTP, TTP, and deoxy-ATP (dATP) treatment”. Consider `Nc1ncnc2c1ncn2[C@@H]1O[C@H](COP(=O)(O)OP(=O)(O)OP(=O)(O)O)[C@@H](O)[C@H]1O` [ATP], for which, on NLRP6 [2], the “gel filtration and EM, nucleotide-induced oligomerization” value is “in the presence of both ATP and LPS, NLRP6 showed additional peak shifts”. With `Nc1ccn([C@@H]2O[C@H](COP(=O)(O)OP(=O)(O)OP(=O)(O)O)[C@@H](O)[C@H]2O)c(=O)n1` [CTP], at NLRP6 [1], the nucleotide-induced oligomerization result is “demonstrated by ATP, GTP, CTP, TTP, and deoxy-ATP (dATP) treatment”. Same read-out and setting: as for `Nc1ncnc2c1ncn2[C@H]1C[C@H](O)[C@@H](COP(=O)(O)OP(=O)(O)OP(=O)(O)O)O1` [deoxy-ATP], the entry is “demonstrated by ATP, GTP, CTP, TTP, and deoxy-ATP (dATP) treatment”; as for `Cc1cn([C@H]2C[C@H](O)[C@@H](COP(=O)(O)OP(=O)(O)OP(=O)(O)O)O2)c(=O)[nH]c1=O` [TTP], “demonstrated by ATP, GTP, CTP, TTP, and deoxy-ATP (dATP) treatment”.

B1: Recombinant full-length human NLRP6 (1–892) (natural protein, UniProt P59044 1-892, looked up)
chain: T1 sequence (P59044 1-892)
notes: NLRP6, human, full length, residues 1-892; Number of copies depends on the condition: monomer in the arginine buffer, dimer with LPS, tetramer, hexamer and longer linear oligomers with LPS and ATP; also called NLRP6 monomer; NLRP6 dimer; not shown: His-tag, N-terminal, cleaved; MBP, N-terminal, cleaved
The term stoichiometry N denotes a count of units in the complex or per binding partner. On to B1, for which the “stoichiometry N” value is 2 in data set [3]; 16 and 18 in data set [4]; 4 and 6 and 8 and 10 in data set [5].
